Measurements published in US20140255392A1 (BAYER INTELLECTUAL PROPERTY GMBH, priority 2011, published 2014).
pIC50: −log10 of the molar value.

The molecules below were run against T1, human kinase Mps-1 (Homo sapiens, UniProt P33981) (assay: Mps-1 kinase assay (TR-FRET)). Details: N-terminally GST-tagged human full length recombinant Mps-1; 10 μM ATP; 1 μM peptide substrate; 60 min at 22° C.
T1 construct: N-terminally GST-tagged human full length recombinant Mps-1 kinase; GST (N); purchased Invitrogen, Karslruhe, Germany PV4071
T1 sequence (P33981 1-857): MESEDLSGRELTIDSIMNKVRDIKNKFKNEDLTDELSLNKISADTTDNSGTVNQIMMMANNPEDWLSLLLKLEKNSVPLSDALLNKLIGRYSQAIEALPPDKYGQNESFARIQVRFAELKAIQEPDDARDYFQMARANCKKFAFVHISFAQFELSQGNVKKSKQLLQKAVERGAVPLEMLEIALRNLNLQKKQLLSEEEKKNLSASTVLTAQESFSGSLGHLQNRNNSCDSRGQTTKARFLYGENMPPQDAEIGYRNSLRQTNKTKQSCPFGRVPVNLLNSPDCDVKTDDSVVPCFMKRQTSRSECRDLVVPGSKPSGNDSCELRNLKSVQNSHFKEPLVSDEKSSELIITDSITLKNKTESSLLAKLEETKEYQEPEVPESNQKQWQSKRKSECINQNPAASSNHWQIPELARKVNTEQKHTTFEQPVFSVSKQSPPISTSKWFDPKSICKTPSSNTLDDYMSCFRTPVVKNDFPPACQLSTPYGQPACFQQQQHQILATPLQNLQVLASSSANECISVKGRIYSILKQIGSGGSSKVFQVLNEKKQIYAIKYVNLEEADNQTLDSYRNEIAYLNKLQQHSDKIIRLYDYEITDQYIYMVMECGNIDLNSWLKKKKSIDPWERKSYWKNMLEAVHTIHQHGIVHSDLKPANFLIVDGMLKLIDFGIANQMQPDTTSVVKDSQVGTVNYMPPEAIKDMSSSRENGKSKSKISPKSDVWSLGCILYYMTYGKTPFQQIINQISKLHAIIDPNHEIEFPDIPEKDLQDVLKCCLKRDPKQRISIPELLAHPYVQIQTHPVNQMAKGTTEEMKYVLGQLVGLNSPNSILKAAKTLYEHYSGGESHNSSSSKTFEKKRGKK
Assay type: biochemical
Procedure: The human kinase Mps-1 phosphorylates a biotinylated substrate peptide. Detection of the phosphorylated product is achieved by time-resolved fluorescence resonance energy transfer (TR-FRET) from Europium-labelled anti-phospho-Serine/Threonine antibody as donor to streptavidin labelled with cross-linked allophycocyanin (SA-XLent) as acceptor. Compounds are tested for their inhibition of the kinase activity.
N-terminally GST-tagged human full length recombinant Mps-1 kinase (purchased from Invitrogen, Karslruhe, Germany, cat. no PV4071) was used. As substrate for the kinase reaction a biotinylated peptide of the amino-acid sequence […] (C-terminus in amide form, purchased from Biosynthan GmbH, Berlin) was used.
The concentration of Mps-1 in the assay was adjusted to the activity of the enzyme lot and was chosen appropriate to have the assay in the linear range, typical enzyme concentrations were in the range of about 1 nM (final conc. in the 5 μl assay volume).
The resulting mixture was incubated 1 h at 22° C. to allow the binding of the phosphorylated peptide to the anti-phospho(Ser/Thr)-Europium-antibody. Subsequently the amount of phosphorylated substrate was evaluated by measurement of the resonance energy transfer from the Europium-labelled anti-phospho(Ser/Thr) antibody to the Streptavidin-XLent.

Row | SMILES | pIC50
1 | Cc1cc(-c2cnc3c(NCCC(F)(F)F)cc(Oc4cccc(F)c4)cn23)ccc1C(=O)N[C@H]1C[C@@H]1F (relative stereo) [Example 12 (rac.-A), N-[rel-(1S,2S)-2-fluorocyclopropyl]-4-{6-(3-fluorophenoxy)-8-[(3,3,3-trifluoropropyl)amino]imidazo[1,2-a]pyridin-3-yl}-2-methylbenzamide] | 8.96
2 | C#Cc1cc(NCCC(F)(F)F)c2ncc(-c3ccc(C(=O)N[C@@H]4C[C@H]4F)c(C)c3)n2c1 (relative stereo) [Example 16, 4-{6-ethynyl-8-[(3,3,3-trifluoropropyl)amino]imidazo[1,2-a]pyridin-3-yl}-N-[rel-(1R,2R)-2-fluorocyclopropyl]-2-methylbenzamide] | 7.53
3 | Cc1ccc(F)cc1Oc1cc(NCCC(F)(F)F)c2ncc(-c3ccc(C(=O)N[C@H]4C[C@@H]4F)c(C)c3)n2c1 (relative stereo) [Example 29, N-[rel-(1S,2S)-2-fluorocyclopropyl]-4-{6-(5-fluoro-2-methylphenoxy)-8-[(3,3,3-trifluoropropyl)amino]imidazo[1,2-a]pyridin-3-yl}-2-methylbenzamide] | 8.89
4 | Cc1cc(-c2cnc3c(NCCC(F)(F)F)cc(Oc4cccc(Cl)c4)cn23)ccc1C(=O)N[C@@H]1C[C@H]1F (relative stereo) [Example 39 (rac.-A), 4-{6-(3-chlorophenoxy)-8-[(3,3,3-trifluoropropyl)amino]imidazo[1,2-a]pyridin-3-yl}-N-[rel-(1R,2R)-2-fluorocyclopropyl]-2-methylbenzamide] | 8.51
5 | Cc1cc(-c2cnc3c(NCCC(F)(F)F)cc(Oc4cccc(F)c4)cn23)ccc1C(=O)N[C@@H]1C[C@H]1C (relative stereo) [Example 48, Rel-4-{6-(3-fluorophenoxy)-8-[(3,3,3-trifluoropropyl)amino]imidazo[1,2-a]pyridin-3-yl}-2-methyl-N-[(1R,2R)-2-methylcyclopropyl]benzamide] | 8.68
6 | Cc1ccc(F)cc1Oc1cc(NCCC(F)(F)F)c2ncc(-c3ccc(C(=O)N[C@@H]4C[C@H]4C)c(C)c3)n2c1 (relative stereo) [Example 61, Rel-4-{6-(5-fluoro-2-methylphenoxy)-8-[(3,3,3-trifluoropropyl)amino]imidazo[1,2-a]pyridin-3-yl}-2-methyl-N-[(1R,2R)-2-methylcyclopropyl]benzamide] | 8.31
7 | C=Cc1cc(NCCC(F)(F)F)c2ncc(-c3ccc(C(=O)N[C@H]4C[C@@H]4F)c(C)c3)n2c1 (relative stereo) [Example 97, N-[rel-(1S,2S)-2-fluorocyclopropyl]-2-methyl-4-{8-[(3,3,3-trifluoropropyl)amino]-6-vinylimidazo[1,2-a]pyridin-3-yl}benzamide] | 7.32

Now from value to molecule:

Row | pIC50 | SMILES
8 | 7.48 | Cc1cc(-c2cnc3c(NCCC(F)(F)F)cc(C(C)O)cn23)ccc1C(=O)NC1CC1 (racemic) [Example 143, N-cyclopropyl-4-{6-[(1RS)-1-hydroxyethyl]-8-[(3,3,3-trifluoropropyl)amino]imidazo[1,2-a]pyridin-3-yl}-2-methylbenzamide]
9 | 6.63 | CNC(=O)c1ccc(-c2cnc3c(NCCC(F)(F)F)cc(C(C)O)cn23)cc1C (racemic) [Example 144, 4-{6-[(1RS)-1-Hydroxyethyl]-8-[(3,3,3-trifluoropropyl)amino]imidazo[1,2-a]pyridin-3-yl}-N,2-dimethylbenzamide]
10 | 6.60 | CCNC(=O)c1ccc(-c2cnc3c(NCCC(F)(F)F)cc(C(C)O)cn23)cc1C (racemic) [Example 145, N-ethyl-4-{6-[(1RS)-1-hydroxyethyl]-8-[(3,3,3-trifluoropropyl)amino]imidazo[1,2-a]pyridin-3-yl}-2-methylbenzamide]
11 | 7.53 | C=Cc1cc(NCCC(F)(F)F)c2ncc(-c3ccc(C(=O)N[C@H]4C[C@@H]4C)c(C)c3)n2c1 (relative stereo) [Example 98, 2-Methyl-N-[rel-(1S,2S)-2-methylcyclopropyl]-4-{8-[(3,3,3-trifluoropropyl)amino]-6-vinylimidazo[1,2-a]pyridin-3-yl}benzamide]
